Test results published in patent publication US9682026B2, “Oral care product and methods of use and manufacture thereof” (Colgate-Palmolive Company, priority 2008, dated 2017).

Tested on: S. sanguis
Test: Ammonia production by S. sanguis at pH 4.0
Assay type: cell-based
Conditions: 5 millimolar amino acid, 0.1% sucrose, pH 4.0, 37° C., 30 minutes; mean of 6 trials
Description: An overnight culture of S. sanguis was grown at 37° C. in trypticase soy broth (Becton Dickinson, Sparks, Md.). The culture was centrifuged at 5,000 rpm for 5 minutes at 1 milliliter at a time into preweighed tubes in order to accumulate approximately 5 milligrams of wet pellet weight. The pellet was then resuspended into 20 millimolar potassium phosphate buffer (J T Baker, Phillipsburg, N.J.), pH 4.0, to simulate a stressed environment for the bacterial cell where ammonia would be produced for survival. The final concentration was 5 milligram per milliliter. To this final concentration, a 5 millimolar final concentration of L-arginine, L-citrulline, or L-ornithine was added along with a 0.1% final concentration of sucrose (VWR, West Chester, Pa.). This mixture was then incubated at 37° C. in a shaking water bath for 30 minutes before ammonia production was determined.
In order to analyze for ammonia, an Ammonia Assay kit was used from Diagnostic Chemicals Limited (Oxford, Conn.). The intended use of this specific kit is for the in vitro quantification of ammonia in plasma, but the procedure was modified in order to determine and quantify the ammonia production in plaque and/or bacteria.

## N=C(N)NCCC[C@H](N)C(=O)O [L-Arginine, L-arginine]
  Ammonia (ppm), Mean: 1.06 ppm

## NC(=O)NCCC[C@H](N)C(=O)O [L-Citrulline, L-citrulline]
  Ammonia (ppm), Mean: 0.951 ppm

## NCCC[C@H](N)C(=O)O [L-Ornithine, L-ornithine]
  Ammonia (ppm), Mean: 0.134 ppm
